One assay has as its target CDK7 CyclinH (Homo sapiens, UniProt P50613). As to the kind of experiment: Additional inhibition assay, CDK7 CyclinH. In kind it is biochemical.
A further assay deals with T1, CDK2-CYCLINA (Homo sapiens, UniProt P24941).
T1 construct: purchased Millipore
As to the kind of experiment: Microfluidic LabChip kinase inhibition assay, CDK2-CyclinA. The assay is classed as biochemical. To be noted: 50 μM ATP.

The target in another assay is T2, CDK9-CYCLINT1 (Homo sapiens, UniProt P50750).
T2 construct: purchased Carna
The experiment in a line: Microfluidic LabChip kinase inhibition assay, CDK9-CyclinT1. In kind it is biochemical.

The next assay addresses CDK4-CYCLIND1 (Homo sapiens, UniProt P11802). As to the kind of experiment: Microfluidic LabChip kinase inhibition assay, CDK4-CyclinD1. The following applies: CDK4 CyclinD1 IC50 (μM), 200 μM ATP, second value in parentheses on the next line.
For a further assay, the target named is CDK1/B (Homo sapiens, UniProt P06493). As to the kind of experiment: Additional inhibition assay, CDK1/B. In kind it is biochemical.
In the next assay the target is T3, CDK6-CYCLIND3 (Homo sapiens, UniProt Q00534).
T3 construct: purchased Carna
The experiment in a line: Microfluidic LabChip kinase inhibition assay, CDK6-CyclinD3. To be noted: CDK6 CyclinD3 IC50 (μM), 300 μM ATP. In kind it is biochemical.

Setting [1] is: Table 3a, 10 μM ATP, read-out: CDK9 CyclinT1 IC50.

Each structure is given as a SMILES string. “And” between values parts separate entries of the source, which are not always exact repeats. Identical values can stand only once. Like-named read-outs stand apart in the source and are kept apart here.

Sequence of CDK1/B (P06493 whole entry): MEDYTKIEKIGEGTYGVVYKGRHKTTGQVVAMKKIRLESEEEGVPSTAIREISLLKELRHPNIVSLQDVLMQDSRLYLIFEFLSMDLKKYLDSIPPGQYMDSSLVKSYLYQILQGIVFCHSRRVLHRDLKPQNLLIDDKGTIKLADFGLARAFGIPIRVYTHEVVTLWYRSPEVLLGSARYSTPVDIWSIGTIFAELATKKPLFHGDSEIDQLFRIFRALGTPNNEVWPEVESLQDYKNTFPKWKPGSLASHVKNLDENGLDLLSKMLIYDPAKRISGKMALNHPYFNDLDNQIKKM
Sequence of CDK1/B (P14635 whole entry partner): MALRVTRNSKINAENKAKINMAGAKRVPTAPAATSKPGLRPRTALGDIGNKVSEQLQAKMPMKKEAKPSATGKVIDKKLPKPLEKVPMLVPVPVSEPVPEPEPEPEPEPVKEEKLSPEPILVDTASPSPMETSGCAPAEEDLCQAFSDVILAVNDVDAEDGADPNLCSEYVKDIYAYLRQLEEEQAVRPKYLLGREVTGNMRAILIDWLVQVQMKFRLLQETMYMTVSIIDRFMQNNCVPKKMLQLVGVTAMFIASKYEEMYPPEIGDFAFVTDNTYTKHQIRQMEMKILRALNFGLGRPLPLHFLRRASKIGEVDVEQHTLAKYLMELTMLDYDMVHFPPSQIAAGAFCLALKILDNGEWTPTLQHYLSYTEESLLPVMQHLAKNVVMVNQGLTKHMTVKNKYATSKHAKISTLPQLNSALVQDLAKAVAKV
Sequence of CDK7 CyclinH (P50613 whole entry): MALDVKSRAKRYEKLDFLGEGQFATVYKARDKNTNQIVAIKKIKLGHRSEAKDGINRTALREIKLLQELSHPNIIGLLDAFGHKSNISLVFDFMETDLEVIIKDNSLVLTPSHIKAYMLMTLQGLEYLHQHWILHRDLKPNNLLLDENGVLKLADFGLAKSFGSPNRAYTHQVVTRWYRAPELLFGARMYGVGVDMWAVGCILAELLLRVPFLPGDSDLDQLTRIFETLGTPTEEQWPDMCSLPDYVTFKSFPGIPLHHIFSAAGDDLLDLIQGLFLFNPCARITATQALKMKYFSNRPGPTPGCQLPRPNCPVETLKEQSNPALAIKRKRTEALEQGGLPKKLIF
Sequence of CDK7 CyclinH (P51946 whole entry partner): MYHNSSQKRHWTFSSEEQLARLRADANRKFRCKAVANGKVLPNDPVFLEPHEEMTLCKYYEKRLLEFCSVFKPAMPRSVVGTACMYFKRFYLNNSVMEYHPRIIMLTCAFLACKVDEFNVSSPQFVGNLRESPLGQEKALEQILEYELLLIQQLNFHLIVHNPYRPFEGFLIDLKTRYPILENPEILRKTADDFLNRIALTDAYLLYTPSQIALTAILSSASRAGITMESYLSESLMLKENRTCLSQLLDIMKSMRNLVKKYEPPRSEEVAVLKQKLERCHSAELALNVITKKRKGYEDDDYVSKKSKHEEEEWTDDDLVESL
Sequence of CDK7 CyclinH (P51948 whole entry partner): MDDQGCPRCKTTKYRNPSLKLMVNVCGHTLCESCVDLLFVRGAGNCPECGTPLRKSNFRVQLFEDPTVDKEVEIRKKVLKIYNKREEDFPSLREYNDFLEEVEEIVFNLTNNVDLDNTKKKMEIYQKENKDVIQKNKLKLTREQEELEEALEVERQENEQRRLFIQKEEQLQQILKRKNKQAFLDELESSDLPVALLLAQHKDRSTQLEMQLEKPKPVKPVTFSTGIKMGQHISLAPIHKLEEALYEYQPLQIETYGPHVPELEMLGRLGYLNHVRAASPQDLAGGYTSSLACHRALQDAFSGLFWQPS
T2 sequence (P50750 whole entry): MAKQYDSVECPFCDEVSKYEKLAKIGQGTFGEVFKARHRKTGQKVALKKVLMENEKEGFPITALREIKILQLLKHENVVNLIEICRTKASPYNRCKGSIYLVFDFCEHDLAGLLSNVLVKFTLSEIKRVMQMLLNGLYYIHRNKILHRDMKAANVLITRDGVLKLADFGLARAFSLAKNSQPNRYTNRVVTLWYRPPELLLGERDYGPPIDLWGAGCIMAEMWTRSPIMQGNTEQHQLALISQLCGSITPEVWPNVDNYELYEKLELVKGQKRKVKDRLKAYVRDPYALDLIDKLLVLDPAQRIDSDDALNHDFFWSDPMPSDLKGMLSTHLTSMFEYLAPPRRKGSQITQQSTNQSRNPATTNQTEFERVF
T2 sequence (O60563 whole entry partner): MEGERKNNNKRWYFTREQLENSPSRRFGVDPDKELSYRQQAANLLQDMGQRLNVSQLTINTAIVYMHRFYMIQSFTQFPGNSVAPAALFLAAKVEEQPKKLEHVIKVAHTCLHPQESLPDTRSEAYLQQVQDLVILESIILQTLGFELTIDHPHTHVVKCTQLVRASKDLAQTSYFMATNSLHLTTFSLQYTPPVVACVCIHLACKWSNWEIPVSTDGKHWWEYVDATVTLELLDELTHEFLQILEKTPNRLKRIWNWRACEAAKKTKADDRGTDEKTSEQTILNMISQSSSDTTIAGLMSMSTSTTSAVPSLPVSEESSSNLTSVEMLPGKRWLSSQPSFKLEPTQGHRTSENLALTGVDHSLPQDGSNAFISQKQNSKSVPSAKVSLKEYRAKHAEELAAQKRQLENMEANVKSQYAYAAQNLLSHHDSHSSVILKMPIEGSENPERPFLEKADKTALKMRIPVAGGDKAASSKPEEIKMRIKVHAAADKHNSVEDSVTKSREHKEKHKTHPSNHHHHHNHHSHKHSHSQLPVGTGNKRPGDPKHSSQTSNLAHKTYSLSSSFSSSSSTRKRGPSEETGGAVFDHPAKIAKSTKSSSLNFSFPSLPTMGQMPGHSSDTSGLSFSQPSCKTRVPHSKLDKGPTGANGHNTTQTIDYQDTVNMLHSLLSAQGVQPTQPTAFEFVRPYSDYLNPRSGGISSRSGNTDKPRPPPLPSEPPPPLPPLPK
Sequence of CDK4-CYCLIND1 (P11802 whole entry): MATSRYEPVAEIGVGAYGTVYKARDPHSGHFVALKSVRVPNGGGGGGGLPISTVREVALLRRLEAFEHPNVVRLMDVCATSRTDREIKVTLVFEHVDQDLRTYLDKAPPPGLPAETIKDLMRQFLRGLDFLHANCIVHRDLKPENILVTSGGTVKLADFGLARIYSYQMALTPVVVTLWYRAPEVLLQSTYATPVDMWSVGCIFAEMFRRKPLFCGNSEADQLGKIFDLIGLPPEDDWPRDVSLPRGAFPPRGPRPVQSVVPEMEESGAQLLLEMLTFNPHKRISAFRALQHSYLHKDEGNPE
Sequence of CDK4-CYCLIND1 (P24385 whole entry partner): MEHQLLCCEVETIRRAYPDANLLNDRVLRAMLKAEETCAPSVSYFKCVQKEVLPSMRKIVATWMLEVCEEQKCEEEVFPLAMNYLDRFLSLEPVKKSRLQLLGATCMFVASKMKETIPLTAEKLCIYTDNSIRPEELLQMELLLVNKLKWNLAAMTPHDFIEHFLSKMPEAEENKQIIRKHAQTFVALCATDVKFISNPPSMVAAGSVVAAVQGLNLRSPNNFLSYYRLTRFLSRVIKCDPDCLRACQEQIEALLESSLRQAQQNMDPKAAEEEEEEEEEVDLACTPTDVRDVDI
T3 sequence (Q00534 whole entry): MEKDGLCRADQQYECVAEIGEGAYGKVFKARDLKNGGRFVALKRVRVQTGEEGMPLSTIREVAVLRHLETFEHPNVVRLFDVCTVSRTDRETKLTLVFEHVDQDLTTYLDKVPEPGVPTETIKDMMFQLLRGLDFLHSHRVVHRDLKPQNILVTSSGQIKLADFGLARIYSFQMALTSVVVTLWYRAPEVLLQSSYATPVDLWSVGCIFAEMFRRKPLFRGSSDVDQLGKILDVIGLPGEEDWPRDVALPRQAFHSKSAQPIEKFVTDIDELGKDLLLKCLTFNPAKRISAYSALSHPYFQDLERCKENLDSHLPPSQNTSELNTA
T3 sequence (P30281 whole entry partner): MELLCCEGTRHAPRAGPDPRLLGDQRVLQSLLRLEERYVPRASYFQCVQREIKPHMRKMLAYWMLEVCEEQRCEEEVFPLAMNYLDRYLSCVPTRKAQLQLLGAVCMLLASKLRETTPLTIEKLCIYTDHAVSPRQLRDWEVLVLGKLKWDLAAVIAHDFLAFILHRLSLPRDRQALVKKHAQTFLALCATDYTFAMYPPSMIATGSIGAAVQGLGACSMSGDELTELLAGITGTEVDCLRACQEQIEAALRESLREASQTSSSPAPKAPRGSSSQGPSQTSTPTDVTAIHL
Procedure for CDK4-CYCLIND1: Inhibition assays were performed using microfluidic LabChip 300 Drug Discovery System from Caliper Life Sciences. […] The assay has a total volume of 10 μL consisting of 5 μL of enzyme and buffer and 5 μL of substrate and buffer. The test compounds were diluted in 100% dimethylsulfoxide (DMSO) using 3-fold dilution steps. […] Compounds were tested in a single well for each dilution and the final concentration of DMSO was maintained at 1%.
The assay buffer contained 100 mM HEPES, pH 7.5, 0.01% Triton X-100, 0.1% bovine serum albumin (BSA), 5 mM MgCl2; 1 mM dithiothreitol (DTT), 10 μM sodium orthovanadate, and 10 μM β-glycerophosphate.
The assay was conducted by adding 5 μL of enzyme, adenosine triphosphate (ATP) and buffer to an assay plate. A 100 nL aliquot of the diluted compounds were added to the plate. The assay was initiated by the addition of 5 μL of phosphoenolpyruvate substrate (PEP) in buffer. […] The reaction was terminated by the addition of EDTA. The plates were analyzed using a Caliper LabChip 3000.

As a reminder, the IC50 is the concentration at which inhibition is half-maximal. As for `CN1CCN(c2ccc(Nc3ncc4c(n3)N(C3CCCC3)C3(CC(=O)NC3=O)C4)cc2)CC1` (single isomer, unassigned) [Compound C136, 7′-cyclopentyl-2′-((4-(4-methylpiperazin-1-yl)phenyl)amino)-5′,7′-dihydrospiro[pyrrolidine-3,6′-pyrrolo[2,3-d]pyrimidine]-2,5-dione], the IC50 was determined as 5740 nM on CDK7 CyclinH (Table 3a); 5740 nM at CDK7 CyclinH (Table 3b); 1540 nM against CDK2-CYCLINA (Table 3a); 1540 nM at CDK2-CYCLINA (Table 3b); 80.5 nM against CDK9-CYCLINT1; 0.0257 µM at CDK4-CYCLIND1 (Table 3a). Besides, the values for the IC50 on CDK4-CYCLIND1 (Table 3b), against CDK1/B (Table 3a) and against CDK1/B (Table 3b) were 0.0257 µM, 1270 nM and 1270 nM, respectively.
Consider `CN1CCN(c2ccc(Nc3ncc4c(n3)N(C3CCCC3)C3(CC(=O)NC3=O)C4)cc2)CC1` (single isomer, unassigned) [Compound C137, 7′-cyclopentyl-2′-((4-(4-methylpiperazin-1-yl)phenyl)amino)-5′,7′-dihydrospiro[pyrrolidine-3,6′-pyrrolo[2,3-d]pyrimidine]-2,5-dione], for which the IC50 on CDK7 CyclinH (Table 3a) came to 585 nM; against CDK7 CyclinH (Table 3b) it was 585 nM; against CDK2-CYCLINA (Table 3a), 3330 nM; against CDK2-CYCLINA (Table 3b), 3330 nM; on CDK9-CYCLINT1 (setting [1]), 367 nM; on CDK4-CYCLIND1 (Table 3a) it was 0.202 µM. In addition, the figures for the IC50 on CDK4-CYCLIND1 (Table 3b), on CDK1/B (Table 3a) and against CDK1/B (Table 3b) were 0.202 µM, 1650 nM and 1650 nM, respectively.
For the compound `CN1CCN(c2ccc(Nc3ncc4c(n3)N(C3CCCC3)C3(CCNC3=O)C4)cc2F)CC1` (single isomer, unassigned) [Compound C197, 7′-cyclopentyl-2′-((3-fluoro-4-(4-methylpiperazin-1-yl)phenyl)amino)-5′,7′-dihydrospiro[pyrrolidine-3,6′-pyrrolo[2,3-d]pyrimidin]-2-one], the IC50 at CDK7 CyclinH (Table 3a) was 22100 nM; on CDK7 CyclinH (Table 3b) it was 22100 nM; against CDK2-CYCLINA (Table 3a), 2100 nM; against CDK2-CYCLINA (Table 3b), 2100 nM; against CDK9-CYCLINT1, 46.6 nM; on CDK4-CYCLIND1 (Table 3a), 0.0517 µM and 0.028 µM. For the same compound, the IC50 at CDK4-CYCLIND1 (Table 3b) was 0.0517 µM and 0.028 µM; at CDK6-CYCLIND3 (Table 3a), 0.258 µM; at CDK6-CYCLIND3 (Table 3b), 0.258 µM.
With `CN(C)CCOc1ccc(Nc2ncc3c(n2)N(C2CCCC2)C2(CCNC2=O)C3)cc1` (stereo not shown) [Compound C108, 7′-cyclopentyl-2′-((4-(2-(dimethylamino)ethoxy)phenyl)amino)-5′,7′-dihydrospiro[pyrrolidine-3,6′-pyrrolo[2,3-d]pyrimidin]-2-one], the IC50 at CDK7 CyclinH (Table 3a) is over 10000 nM; against CDK7 CyclinH (Table 3b), over 10000 nM; against CDK2-CYCLINA (Table 3a), over 10000 nM; at CDK2-CYCLINA (Table 3b), over 10000 nM; at CDK9-CYCLINT1 (setting [1]), 21 nM; on CDK4-CYCLIND1 (Table 3a), 0.124 µM. In addition, the IC50 at CDK4-CYCLIND1 (Table 3b) stood at 0.124 µM; against CDK1/B (Table 3a) it was 6350 nM; against CDK1/B (Table 3b), 6350 nM.
As to `CN1CCN(c2ccc(Nc3ncc4c(n3)N(C3CCCC3)C3(CCNC3=O)C4)cc2)CC1` (stereo not shown) [Compound C115, 7′-cyclopentyl-2′-((4-(4-methylpiperazin-1-yl)phenyl)amino)-5′,7′-dihydrospiro[pyrrolidine-3,6′-pyrrolo[2,3-d]pyrimidin]-2-one], the IC50 is over 10000 nM on CDK7 CyclinH (Table 3a); over 10000 nM against CDK7 CyclinH (Table 3b); over 10000 nM against CDK2-CYCLINA (Table 3a); over 10000 nM on CDK2-CYCLINA (Table 3b); 149 nM on CDK9-CYCLINT1 (setting [1]); 0.116 µM on CDK4-CYCLIND1 (Table 3a). The IC50 at CDK4-CYCLIND1 (Table 3b) was determined as 0.116 µM; against CDK1/B (Table 3a) it was 9110 nM; against CDK1/B (Table 3b), 9110 nM.
For `CC(C)N1CCN(c2ccc(Nc3ncc4c(n3)N(C3CCCC3)C3(CCNC3=O)C4)cc2F)CC1` (stereo not shown) [Compound C118, 7′-cyclopentyl-2′-((3-fluoro-4-(4-isopropylpiperazin-1-yl)phenyl)amino)-5′,7′-dihydrospiro[pyrrolidine-3,6′-pyrrolo[2,3-d]pyrimidin]-2-one], the IC50 against CDK7 CyclinH (Table 3a) was over 10000 nM; against CDK7 CyclinH (Table 3b) it was over 10000 nM; at CDK2-CYCLINA (Table 3a) it was 4900 nM; at CDK2-CYCLINA (Table 3b) it was 4900 nM; at CDK9-CYCLINT1 (setting [1]), 16 nM; on CDK4-CYCLIND1 (Table 3a), 0.0264 µM. In addition, the IC50 amounted to 0.0264 µM at CDK4-CYCLIND1 (Table 3b), 3820 nM against CDK1/B (Table 3a) and 3820 nM on CDK1/B (Table 3b).
As to `Cc1cc(Nc2ncc3c(n2)N(C2CCCC2)C2(CCNC2=O)C3)ccc1N1CCN(C(C)C)CC1` (stereo not shown) [Compound C121, 7′-cyclopentyl-2′-((4-(4-isopropylpiperazin-1-yl)-3-methylphenyl)amino)-5′,7′-dihydrospiro[pyrrolidine-3,6′-pyrrolo[2,3-d]pyrimidin]-2-one], the IC50 on CDK7 CyclinH (Table 3a) is over 10000 nM; against CDK7 CyclinH (Table 3b), over 10000 nM; against CDK2-CYCLINA (Table 3a), over 10000 nM; at CDK2-CYCLINA (Table 3b), over 10000 nM; at CDK9-CYCLINT1 (setting [1]), 132 nM; at CDK4-CYCLIND1 (Table 3a), 0.374 µM. The IC50 on CDK4-CYCLIND1 (Table 3b) was 0.374 µM; on CDK1/B (Table 3a), over 10000 nM; against CDK1/B (Table 3b), over 10000 nM.
For `COc1cc(Nc2ncc3c(n2)N(C2CCCC2)C2(CCNC2=O)C3)ccc1N1CCN(C)CC1` (stereo not shown) [Compound C123, 7′-cyclopentyl-2′-((3-methoxy-4-(4-methylpiperazin-1-yl)phenyl)amino)-5′,7′-dihydrospiro[pyrrolidine-3,6′-pyrrolo[2,3-d]pyrimidin]-2-one], the IC50 on CDK7 CyclinH (Table 3a) is over 10000 nM; at CDK7 CyclinH (Table 3b) it was over 10000 nM; on CDK2-CYCLINA (Table 3a), over 10000 nM; on CDK2-CYCLINA (Table 3b), over 10000 nM; on CDK9-CYCLINT1 (setting [1]), 292 nM; on CDK4-CYCLIND1 (Table 3a) it was 0.955 µM. Further, the IC50 is 0.955 µM on CDK4-CYCLIND1 (Table 3b), over 10000 nM at CDK1/B (Table 3a) and over 10000 nM on CDK1/B (Table 3b).
Take `CN1CCN(c2ccc(Nc3ncc4c(n3)N(C3CCCC3)C3(CCNC3=O)C4)cn2)CC1` (stereo not shown) [Compound C129, 7′-cyclopentyl-2′-((6-(4-methylpiperazin-1-yl)pyridin-3-yl)amino)-5′,7′-dihydrospiro[pyrrolidine-3,6′-pyrrolo[2,3-d]pyrimidin]-2-one]: the IC50 was over 10000 nM against CDK7 CyclinH (Table 3a); over 10000 nM on CDK7 CyclinH (Table 3b); over 10000 nM at CDK2-CYCLINA (Table 3a); over 10000 nM against CDK2-CYCLINA (Table 3b); 62.8 nM at CDK9-CYCLINT1 (setting [1]); 0.103 µM on CDK4-CYCLIND1 (Table 3a). Moreover, the IC50 on CDK4-CYCLIND1 (Table 3b) worked out at 0.103 µM; at CDK1/B (Table 3a), 8520 nM; against CDK1/B (Table 3b), 8520 nM.
With `O=C1NCCC12Cc1cnc(Nc3ccc(N4CCC(N5CCOCC5)CC4)cc3)nc1N2C1CCCC1` (stereo not shown) [Compound C131, 7′-cyclopentyl-2′-((4-(4-morpholinopiperidin-1-yl)phenyl)amino)-5′,7′-dihydrospiro[pyrrolidine-3,6′-pyrrolo[2,3-d]pyrimidin]-2-one], the IC50 at CDK7 CyclinH (Table 3a) is over 10000 nM; at CDK7 CyclinH (Table 3b) it was over 10000 nM; against CDK2-CYCLINA (Table 3a) it was over 10000 nM; against CDK2-CYCLINA (Table 3b), over 10000 nM; at CDK9-CYCLINT1 (setting [1]), 298 nM; at CDK4-CYCLIND1 (Table 3a), 0.273 µM. Moreover, the IC50 at CDK4-CYCLIND1 (Table 3b) was 0.273 µM; against CDK1/B (Table 3a), over 10000 nM; against CDK1/B (Table 3b), over 10000 nM.
Regarding `O=C1NCCC12Cc1cnc(Nc3ccc(N4CCC(N5CCOCC5)CC4)c(F)c3)nc1N2C1CCCC1` (stereo not shown) [Compound C132, 7′-cyclopentyl-2′-((3-fluoro-4-(4-morpholinopiperidin-1-yl)phenyl)amino)-5′,7′-dihydrospiro[pyrrolidine-3,6′-pyrrolo[2,3-d]pyrimidin]-2-one], the IC50 at CDK7 CyclinH (Table 3a) was over 10000 nM; against CDK7 CyclinH (Table 3b), over 10000 nM; against CDK2-CYCLINA (Table 3a), 9660 nM; against CDK2-CYCLINA (Table 3b), 9660 nM; at CDK9-CYCLINT1 (setting [1]) it was 40.2 nM; on CDK4-CYCLIND1 (Table 3a), 0.0561 µM. Besides, the IC50 on CDK4-CYCLIND1 (Table 3b) was 0.0561 µM; against CDK1/B (Table 3a), 6930 nM; against CDK1/B (Table 3b), 6930 nM.
Regarding `O=C1NCCC12Cc1cnc(Nc3ccc(N4CCC(N5CCOCC5)CC4)nc3)nc1N2C1CCCC1` (stereo not shown) [Compound C133, 7′-cyclopentyl-2′-((6-(4-morpholinopiperidin-1-yl)pyridin-3-yl)amino)-5′,7′-dihydrospiro[pyrrolidine-3,6′-pyrrolo[2,3-d]pyrimidin]-2-one], the IC50 against CDK7 CyclinH (Table 3a) is over 10000 nM; against CDK7 CyclinH (Table 3b) it was over 10000 nM; at CDK2-CYCLINA (Table 3a), over 10000 nM; against CDK2-CYCLINA (Table 3b), over 10000 nM; at CDK9-CYCLINT1 (setting [1]), 125 nM; on CDK4-CYCLIND1 (Table 3a) it was 0.202 µM. For the same compound, the IC50 is 0.202 µM at CDK4-CYCLIND1 (Table 3b), over 10000 nM at CDK1/B (Table 3a) and over 10000 nM at CDK1/B (Table 3b).
Regarding `CC(C)N1CCN(c2ccc(Nc3ncc4c(n3)N(C3CCCC3)C3(CC(=O)NC3=O)C4)cc2)CC1` (stereo not shown) [Compound C134, 7′-cyclopentyl-2′-((4-(4-isopropylpiperazin-1-yl)phenyl)amino)-5′,7′-dihydrospiro[pyrrolidine-3,6′-pyrrolo[2,3-d]pyrimidine]-2,5-dione], the IC50 against CDK7 CyclinH (Table 3a) came out at 8100 nM; at CDK7 CyclinH (Table 3b), 8100 nM; against CDK2-CYCLINA (Table 3a), 2280 nM; against CDK2-CYCLINA (Table 3b), 2280 nM; against CDK1/B (Table 3a) it was 1780 nM; against CDK1/B (Table 3b), 1780 nM.
Turning to `CN1CCN(c2ccc(Nc3ncc4c(n3)N(C3CCCC3)C3(CC(=O)NC3=O)C4)cc2F)CC1` (stereo not shown) [Compound C198, 7′-cyclopentyl-2′-((3-fluoro-4-(4-methylpiperazin-1-yl)phenyl)amino)-5′,7′-dihydrospiro[pyrrolidine-3,6′-pyrrolo[2,3-d]pyrimidine]-2,5-dione], the IC50 at CDK7 CyclinH (Table 3a) is 168 nM; at CDK7 CyclinH (Table 3b), 168 nM; against CDK2-CYCLINA (Table 3a) it was 247 nM; against CDK2-CYCLINA (Table 3b), 247 nM.

Source of the values: US20230065740A1, “CYCLIN-DEPENDENT KINASE INHIBITORS” (SPV THERAPEUTICS INC., priority 2018, published 2023).
